From US20040255959A1, “Method and compounds to decrease the incidence of atrial fibrillation (AF) in patients with left ventricular dysfunction” (priority 2003, published 2004)

Legend:
[1] = system: atrial refractory period during rapid atrial pacing; conditions: in vivo; cited from earlier work
[2] = system: patients with left ventricular dysfunction; assay: Retrospective analysis of Montreal Heart Institute patients randomized in SOLVD: development of atrial fibrillation, enalapril versus placebo; format: in vivo, human
From the text: The patients of the Montreal Heart Institute who were enrolled in the SOLVD trials constituted the study population. SOLVD was a multicenter, double-blinded, randomized, placebo-controlled trial which evaluated the effect of the ACEi enalapril on survival in patients with left ventricular (LV) dysfunction (ejection fraction≦35%).^12,13 The design of the study has been reported previously.^13 Briefly, from June 1986 to August 1991, 4228 patients with asymptomatic or mildly symptomatic (not requiring treatment with digitalis, diuretics or vasodilators for heart failure at study entry) LV dysfunction (LVEF≦0.35) were included in the prevention trial and 2569 patients with overt congestive HF in the treatment trial.^14 Patients were randomized to enalapril (5-20 mg/day) or placebo. Exclusion criteria included: age>80 years, unstable angina, myocardial infarction in the previous month, severe pulmonary disease, renal insufficiency (creatinine level>[…]), current ACEi use or intolerance to ACEi. Follow-up visits were scheduled 2 and 6 weeks after randomization and every 4 months until the end of the study, for a mean follow-up of 3.4 and 3.1 years for the treatment and prevention trials, respectively.
Baseline characteristics, past medical history and drug therapy at the time of enrolment were obtained from the SOLVD databases. Serial electrocardiograms (ECG) were not collected specifically for the SOLVD trials. However, the routine clinical follow-up of patients at our institution usually included a 12-lead ECG. Thus, the medical file of each patient was carefully reviewed and a single experienced cardiologist, blinded to treatment allocation, interpreted every ECG.
AF was defined as rapid oscillations or fibrillatory waves that vary in size, shape and timing, associated with an irregular, frequently rapid ventricular response. For the purposes of the study, paroxysmal AF was defined as episodes in which the patient reverted to sinus rhythm spontaneously, with medical therapy orwith a single cardioversion, whereas patients who remained in AF despite changes in medical therapy and/or cardioversion were defined as persistent AF. Episodes occurring during a 24-hour Holter monitoring were also considered. The end-points were the development and time to first occurrence of AF on either one 12-lead ECG and/or a 24-hour Holter monitoring recorded during any available follow-up visits (including research, outpatient clinic or emergency room visits). Participants with significant supraventricular arrhythmia on the baseline ECG (AF or flutter) were excluded. Patients with a history of arrhythmia (either supraventricular or ventricular) but who were in sinus rhythm on the ECG at the time of randomization were included.
The baseline characteristics of the two groups were compared using student t-test for continuous variables and chi-square test for categorical variables. The incidence of AF between the two groups was compared with the chi-square test. Time to the first occurrence of AF during the follow-up was analyzed with Kaplan-Meier curves and compared with the log-rank test. To analyze the effect of enalapril on development of AF, a Cox regression analysis was used to take into account the effect of potential confounding baseline variables (age, sex, NYHA class, history of supraventricular or ventricular arrhythmia, ischemic etiology, diabetes and ejection fraction) and time-dependent variables (systolic blood pressure, diastolic blood pressure, pulse pressure, serum potassium and drug therapy). Cox proportional-hazard models were performed for each variable with treatment (enalapril) forced in all models. Variables with a p-value≦0.2 were included in a multivariate Cox proportional hazard model.
Subgroup analysis was conducted with chi-square test. Preliminary assumptions were verified prior to all analysis. A p-value≦0.05 was considered statistically significant. […]

[3] = system: animals with HF induced by rapid ventricular pacing; conditions: given at the onset of pacing, animals followed for 5 weeks; cited from earlier work
[4] = system: patients with persistent AF; conditions: started 3 weeks before electrical cardioversion and combined with amiodarone; cited from earlier work
[5] = system: patients shortly after an acute myocardial infarction with depressed LV function; conditions: trandolapril versus placebo, 2-4 years of follow-up in TRACE; cited from earlier work
[6] = patients with AF in enalapril group, n = 10

For `CCOc1nc2cccc(C(=O)O)c2n1Cc1ccc(-c2ccccc2-c2nnn[nH]2)cc1` [candesartan], the “shortening of the atrial refractory period during rapid atrial pacing” value [1] is listed as “prevented”.

In the case of `C[C@H](CS)C(=O)N1CCC[C@H]1C(=O)O` [captopril], the “shortening of the atrial refractory period during rapid atrial pacing” value [1] is listed as “prevented”.

For `CCOC(=O)[C@H](CCc1ccccc1)N[C@@H](C)C(=O)N1CCC[C@H]1C(=O)O` [enalapril], the “patients presenting ≥1 episode of AF” value ([2]; 2.9 years of follow-up, enalapril group n = 186, 5-20 mg/day, placebo 45) was 10 patients, the “patients presenting ≥1 episode of AF (percentage)” value ([2]; 2.9 years of follow-up, enalapril group n = 186, placebo 24%, p<0.001) was 5.4% and the “probability of remaining in sinus rhythm during follow-up” value ([2]; Kaplan-Meier, enalapril versus placebo, p<0.0001, FIG. 1) was “significantly higher”. For the same compound, the “Hazard ratio for incidence of AF, Cox multivariate analysis” value ([2]; allocation to enalapril, 95% CI 0.11-0.44, p<0.0001) was 0.22, the “risk of developing AF in patients with LV dysfunction” value ([2]; chronic ACEi therapy with enalapril) was “markedly reduces” and the “absolute risk reduction of AF” value ([2]; enalapril versus placebo, 2.9 years of follow-up) was 18.6%. The “patients developing AF (percentage), patients with a history of supraventricular arrhythmia excluded” value ([2]; n=21 excluded, placebo 23%, p<0.0001) was 4.5%, the “patients developing AF, patients with a history of supraventricular arrhythmia excluded” value ([2]; n=21 excluded, placebo 40 patients) was 8 patients and the “AF Detection: 12-leads ECG (number)” value [2, 6] was 10. For the same compound, the “AF Detection: 12-leads ECG (percentage)” value [2, 6] was 100%, the “AF Detection: Holter monitoring (number)” value [2, 6] was 0 (0%) and the “AF Detection: Holter monitoring (percentage)” value [2, 6] was 0 (0%). The “AF Requiring: electrical cardioversion (number)” value [2, 6] was 1, the “AF Requiring: electrical cardioversion (percentage)” value [2, 6] was 10% and the “AF Requiring: hospitalization (number)” value [2, 6] was 8. The “AF Requiring: hospitalization (percentage)” value [2, 6] was 80%, the “Paroxysmal AF (number)” value [2, 6] was 8 and the “Paroxysmal AF (percentage)” value [2, 6] was 80%. The “Persistent AF (number)” value [2, 6] was 2, the “Persistent AF (percentage)” value [2, 6] was 20% and the “patients developing AF, SOLVD prevention arm” value ([2]; prevention arm (251 patients), placebo 31 patients) was 4 patients. The “patients developing AF (percentage), SOLVD prevention arm” value ([2]; prevention arm, placebo 24.6%, p<0.0001) was 3.2%, the “patients with CHF needed to be treated to prevent one episode of AF” value ([2]; treated for 2.9 years) was 5 patients and the “patients developing AF, SOLVD treatment arm” value ([2]; treatment arm (123 patients), placebo 14) was 6 patients. For the same compound, the “patients developing AF (percentage), SOLVD treatment arm” value ([2]; treatment arm, placebo 22.6%, P=0.055) was 9.8%, the atrial fibrosis [3] was “significant reduction” and the “atrial structural changes in HF induced by rapid ventricular pacing” value [3] was “attenuated”. For the same compound, the “vulnerability of the animals to AF” value [3] was “decreased vulnerability”.

For `CCCCC1=NC2(CCCC2)C(=O)N1Cc1ccc(-c2ccccc2-c2nnn[nH]2)cc1` [irbesartan], the “effect on AF recurrence” value [4] is listed as “beneficial effect”.

In the case of `CCOC(=O)[C@H](CCc1ccccc1)N[C@@H](C)C(=O)N1[C@H](C(=O)O)C[C@H]2CCCC[C@@H]21` [trandolapril], the “absolute risk reduction on the incidence of AF” value [5] is listed as 2.5%.
